In patent publication US20230406804A1, “PROTEIN KINASE INHIBITORS” (Xavier University of Louisiana, priority 2018, published 2023):
Entries after “also recorded” stand apart in the source; their conditions may differ.

Columns and labels:
[1] = tested on: HER2 residue Y1248; test: Western blot of HER2 autophosphorylation; format: cell-based; conditions: 10 μM, 2 h; MCF7/pcDNA, MCF7/HER2, MCF7/HER2Δ16
Text: (§1) HER2 is a member of the erbB family of tyrosine kinases, which is comprised of four partial homologous transmembrane receptors: EGFR/HER1 (erbB1), HER2 (erbB2/neu), HER3 (erbB3), and HER4 (erbB4). […] Ligand binding induces homo- or hetero-dimerization through disulfide bond linkage, and leads to receptor activation and tyrosine auto-phosphorylation. HER2 is a preferred dimerization partner due to its high catalytic activity and forms potent heterodimers with EGFR and HER3. HER2, with its intrinsic kinase activity can transphosphorylate other members of the erbB family. HER2 and HERΔ16 are overexpressed in the breast cancer cell lines that have been used in this study, leading to the kinases being constitutively active. Upon dimerization, the constitutively active HER2 and HER2Δ16 receptors can transphosphorylate coexpressed EGFR. The levels of phosphorylated HER2 in the parental MCF-7 cell line were less, resulting in its lack of dimerization with EGFR and its transphosphorylation. Western blots were performed to determine the ability of the compounds to inhibit the activation of the HER2 receptor (FIG. 7). The total and phosphorylated protein were detected upon treatment of each of the cells lines with the compounds 6, 7, 8a+8b, 9, 15, 25, 26, 27 and 28 (2-methyl-4,6-dinitro-1H-indene-1,3(2H)-dione) along with the positive control lapatinib at 10 μM concentration for 2 h. […] Compounds 26 and 28 from FIG. 5 were used as negative controls.

[2] = target: T1, EGFR residue Y1068 (Homo sapiens, UniProt P00533); test: Western blot of EGFR transphosphorylation; format: cell-based; conditions: 10 μM, 2 h; MCF7/pcDNA, MCF7/HER2, MCF7/HER2Δ16
T1 construct: endogenous in cells; host or cells: MCF-7/pcDNA, MCF-7/HER2, MCF-7/HER2Δ16
T1 sequence (P00533 25-1210): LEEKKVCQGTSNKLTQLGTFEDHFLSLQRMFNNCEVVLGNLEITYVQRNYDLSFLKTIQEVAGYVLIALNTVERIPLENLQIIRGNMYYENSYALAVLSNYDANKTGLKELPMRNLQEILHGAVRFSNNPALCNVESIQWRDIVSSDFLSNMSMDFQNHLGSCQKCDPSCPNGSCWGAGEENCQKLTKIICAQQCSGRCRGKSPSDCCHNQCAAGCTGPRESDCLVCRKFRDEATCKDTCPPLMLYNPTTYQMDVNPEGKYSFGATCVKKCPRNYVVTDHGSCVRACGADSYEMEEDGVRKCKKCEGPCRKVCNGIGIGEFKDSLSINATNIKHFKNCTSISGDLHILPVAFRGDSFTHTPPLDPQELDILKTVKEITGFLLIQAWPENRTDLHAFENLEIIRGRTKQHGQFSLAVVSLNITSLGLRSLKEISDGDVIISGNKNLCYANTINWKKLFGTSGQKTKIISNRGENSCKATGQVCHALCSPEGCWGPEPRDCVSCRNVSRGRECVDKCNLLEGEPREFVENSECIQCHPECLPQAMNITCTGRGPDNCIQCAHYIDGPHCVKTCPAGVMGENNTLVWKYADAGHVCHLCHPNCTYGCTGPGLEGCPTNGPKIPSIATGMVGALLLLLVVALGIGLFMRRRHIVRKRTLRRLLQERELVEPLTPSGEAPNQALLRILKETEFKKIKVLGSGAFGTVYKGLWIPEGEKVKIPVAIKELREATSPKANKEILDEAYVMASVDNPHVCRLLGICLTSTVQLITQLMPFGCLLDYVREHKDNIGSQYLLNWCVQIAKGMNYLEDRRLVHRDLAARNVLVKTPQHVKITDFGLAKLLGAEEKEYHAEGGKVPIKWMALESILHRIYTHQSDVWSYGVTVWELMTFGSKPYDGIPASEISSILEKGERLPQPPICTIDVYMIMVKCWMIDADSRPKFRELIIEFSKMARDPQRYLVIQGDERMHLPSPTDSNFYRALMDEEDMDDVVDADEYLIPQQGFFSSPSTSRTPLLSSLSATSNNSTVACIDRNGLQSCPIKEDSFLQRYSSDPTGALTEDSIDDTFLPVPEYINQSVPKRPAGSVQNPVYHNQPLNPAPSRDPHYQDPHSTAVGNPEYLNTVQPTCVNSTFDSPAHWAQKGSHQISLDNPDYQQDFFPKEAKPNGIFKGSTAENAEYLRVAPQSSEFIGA
Text: as §1

[3] = tested on: MCF-7/HER2; test: CellTiter-Glo cell viability, IC50; format: cell-based; conditions: Homo sapiens, MCF7, 48 h treatment
Procedure: (§2) The antagonistic activities of the compounds were tested in an estrogen receptor positive (ER+) breast cancer cell line, MCF7 breast cancer cell lines expressing HER2, HER2Δ16 and empty vector. Lapatinib was used as the positive control. The cells were treated with the compounds at 10 μM concentration for 48 h. After treatment, cell viability was tested using the CellTiter-Glo Assay (Promega). […] The […] best compounds 7, 9, the mixture of 8a+8b, 25 and 27 were then taken up for further studies.

[4] = tested on: MCF-7/HER2Δ16; test: CellTiter-Glo cell viability, IC50; format: cell-based; conditions: Homo sapiens, MCF7, 48 h treatment, read-out: IC50 MCF-7/HER2D16
Procedure: as §2

[5] = tested on: MCF-7/pcDNA; test: CellTiter-Glo cell viability, IC50; format: cell-based; conditions: Homo sapiens, MCF7, 48 h treatment
Procedure: as §2

[6] = tested on: BT20, MDA-MB-468, MDA-MB-231, SKBR3, BT474, SUM 190PT and SUM 225CWN; test: Growth inhibition of a panel of breast cancer cell lines; format: cell-based; conditions: triple negative, trastuzumab sensitive and trastuzumab resistant cell lines; read-out: IC50 growth inhibition, range over breast cancer cell line panel
Text: (§3) Compound 7 was taken up for further analysis of its ability to inhibit the growth of a panel of breast cancer cell lines of varied types. The panel included the triple negative cell lines BT20, MDA-MB-468 and MDA-MB-231, the trastuzumab sensitive cell lines SKBR3 and BT474, and the trastuzumab resistant cell lines SUM 190PT and SUM 225CWN (FIG. 9).

[7] = tested on: MDA-MB-231; test: as above; format: cell-based
Text: as §3

[8] = tested on: Aurora kinases A/B (AurK A/B); test: Cross kinase panel high-throughput assay; format: biochemical; conditions: 10 μM
Procedure: (§4) Compound 7 was then subjected to a cross kinase panel high-throughput assay at 10 μM concentration, at Life Technologies, to determine the selectivity of kinase inhibition (FIG. 10). A panel of 120 disease relevant kinases (available with Life Technologies) were studied. 11 kinases were inhibited at 80% or more-protein kinase B 1/2 (also known as AKT1/2), Aurora kinases A/B (AurK A/B), checkpoint kinase 2 (CHEK2), feline sarcoma kinase (FES), fibroblast growth factor 1 (FGFR1), I kappa B kinase B/E (IKK B/E), mitogen activated protein kinase kinase 1 (MAP2K1), mitogen activated protein kinase kinase kinase 8 (MAP3K8), Never in Mitosis (NIMA) related kinase 2 (NEK2), polo-like kinase 1/3 (PLK1/3), serum/glucocorticoid regulated kinase 1 (SGK1) and TEK tyrosine kinase. All these kinases except for CHEK2 are reported to have tumorigenic roles in breast cancer.

[9] = tested on: I kappa B kinase B/E (IKK B/E); test: Cross kinase panel high-throughput assay; format: biochemical; conditions: 10 μM
Procedure: as §4

[10] = target: T2, Never in Mitosis (NIMA) related kinase 2 (NEK2) (Homo sapiens, UniProt P51955); test: Cross kinase panel high-throughput assay; format: biochemical
T2 sequence (P51955 1-445): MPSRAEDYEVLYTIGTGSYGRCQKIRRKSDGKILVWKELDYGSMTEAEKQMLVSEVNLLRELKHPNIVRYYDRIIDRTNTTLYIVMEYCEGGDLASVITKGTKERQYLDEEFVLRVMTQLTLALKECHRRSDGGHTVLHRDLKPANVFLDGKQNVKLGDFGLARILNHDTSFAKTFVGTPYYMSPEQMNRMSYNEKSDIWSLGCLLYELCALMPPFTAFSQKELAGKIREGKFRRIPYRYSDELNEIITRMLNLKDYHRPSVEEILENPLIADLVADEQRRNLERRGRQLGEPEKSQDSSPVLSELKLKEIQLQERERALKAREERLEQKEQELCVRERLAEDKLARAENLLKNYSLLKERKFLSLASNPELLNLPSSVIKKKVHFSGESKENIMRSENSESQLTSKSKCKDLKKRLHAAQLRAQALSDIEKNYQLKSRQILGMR
Procedure: as §4

[11] = target: TEK tyrosine kinase (Homo sapiens, UniProt Q02763); test: Cross kinase panel high-throughput assay; format: biochemical
Chain of TEK tyrosine kinase (Q02763 23-1124): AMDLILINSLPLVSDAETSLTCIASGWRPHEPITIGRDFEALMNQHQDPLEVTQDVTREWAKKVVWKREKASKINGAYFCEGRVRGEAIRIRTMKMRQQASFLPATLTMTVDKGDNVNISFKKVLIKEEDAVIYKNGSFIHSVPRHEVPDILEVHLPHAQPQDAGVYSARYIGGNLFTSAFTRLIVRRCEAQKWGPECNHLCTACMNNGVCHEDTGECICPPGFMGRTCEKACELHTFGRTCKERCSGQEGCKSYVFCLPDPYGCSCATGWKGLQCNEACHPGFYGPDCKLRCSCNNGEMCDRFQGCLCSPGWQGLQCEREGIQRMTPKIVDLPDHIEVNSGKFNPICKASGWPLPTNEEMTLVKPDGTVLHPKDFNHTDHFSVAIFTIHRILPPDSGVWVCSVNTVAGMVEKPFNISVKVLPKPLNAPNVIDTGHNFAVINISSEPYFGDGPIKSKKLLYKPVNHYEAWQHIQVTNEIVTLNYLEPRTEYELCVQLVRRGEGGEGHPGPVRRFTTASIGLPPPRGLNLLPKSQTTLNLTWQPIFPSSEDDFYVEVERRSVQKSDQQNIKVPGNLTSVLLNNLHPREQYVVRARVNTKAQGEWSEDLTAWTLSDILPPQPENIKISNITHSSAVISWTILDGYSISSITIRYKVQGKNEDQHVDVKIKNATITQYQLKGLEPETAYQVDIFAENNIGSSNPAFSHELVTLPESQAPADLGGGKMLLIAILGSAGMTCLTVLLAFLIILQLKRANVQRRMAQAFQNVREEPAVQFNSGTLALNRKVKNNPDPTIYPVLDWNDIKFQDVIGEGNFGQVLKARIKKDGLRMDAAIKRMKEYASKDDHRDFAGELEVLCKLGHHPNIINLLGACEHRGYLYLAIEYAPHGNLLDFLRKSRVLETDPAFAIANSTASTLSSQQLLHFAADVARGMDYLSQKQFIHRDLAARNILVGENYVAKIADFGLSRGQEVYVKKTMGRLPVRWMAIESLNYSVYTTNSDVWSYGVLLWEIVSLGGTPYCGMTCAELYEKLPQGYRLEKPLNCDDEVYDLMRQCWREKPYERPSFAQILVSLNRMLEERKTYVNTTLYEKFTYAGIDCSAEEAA
Procedure: as §4

[12] = target: checkpoint kinase 2 (CHEK2) (Homo sapiens, UniProt O96017); test: Cross kinase panel high-throughput assay; format: biochemical
Procedure: as §4

[13] = target: feline sarcoma kinase (FES) (Homo sapiens, UniProt P07332); test: Cross kinase panel high-throughput assay; format: biochemical
Chain of feline sarcoma kinase (FES) (P07332 whole entry): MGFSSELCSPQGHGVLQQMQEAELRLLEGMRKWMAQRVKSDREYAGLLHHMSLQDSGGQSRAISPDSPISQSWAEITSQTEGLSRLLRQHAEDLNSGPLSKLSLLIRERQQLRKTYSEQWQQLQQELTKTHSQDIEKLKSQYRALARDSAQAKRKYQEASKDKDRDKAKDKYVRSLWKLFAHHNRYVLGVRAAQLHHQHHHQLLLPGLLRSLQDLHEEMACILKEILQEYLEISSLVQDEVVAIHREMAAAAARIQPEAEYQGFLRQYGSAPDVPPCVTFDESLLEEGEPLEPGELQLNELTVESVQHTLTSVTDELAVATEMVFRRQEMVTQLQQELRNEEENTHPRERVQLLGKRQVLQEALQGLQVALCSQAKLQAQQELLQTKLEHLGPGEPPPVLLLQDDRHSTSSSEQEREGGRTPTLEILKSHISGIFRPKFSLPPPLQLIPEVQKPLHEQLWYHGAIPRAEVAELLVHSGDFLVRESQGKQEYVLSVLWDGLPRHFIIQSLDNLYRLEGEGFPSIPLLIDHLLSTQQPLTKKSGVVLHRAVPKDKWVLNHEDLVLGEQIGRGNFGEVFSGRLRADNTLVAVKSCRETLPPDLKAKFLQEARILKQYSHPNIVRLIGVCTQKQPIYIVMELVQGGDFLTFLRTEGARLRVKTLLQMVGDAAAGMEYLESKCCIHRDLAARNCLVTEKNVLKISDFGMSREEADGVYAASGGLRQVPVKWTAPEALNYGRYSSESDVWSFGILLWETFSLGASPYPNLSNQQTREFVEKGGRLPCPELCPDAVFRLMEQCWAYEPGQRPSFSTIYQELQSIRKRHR
Procedure: as §4

[14] = target: fibroblast growth factor 1 (FGFR1) (Homo sapiens, UniProt P11362); test: Cross kinase panel high-throughput assay; format: biochemical
Chain of fibroblast growth factor 1 (FGFR1) (P11362 22-822): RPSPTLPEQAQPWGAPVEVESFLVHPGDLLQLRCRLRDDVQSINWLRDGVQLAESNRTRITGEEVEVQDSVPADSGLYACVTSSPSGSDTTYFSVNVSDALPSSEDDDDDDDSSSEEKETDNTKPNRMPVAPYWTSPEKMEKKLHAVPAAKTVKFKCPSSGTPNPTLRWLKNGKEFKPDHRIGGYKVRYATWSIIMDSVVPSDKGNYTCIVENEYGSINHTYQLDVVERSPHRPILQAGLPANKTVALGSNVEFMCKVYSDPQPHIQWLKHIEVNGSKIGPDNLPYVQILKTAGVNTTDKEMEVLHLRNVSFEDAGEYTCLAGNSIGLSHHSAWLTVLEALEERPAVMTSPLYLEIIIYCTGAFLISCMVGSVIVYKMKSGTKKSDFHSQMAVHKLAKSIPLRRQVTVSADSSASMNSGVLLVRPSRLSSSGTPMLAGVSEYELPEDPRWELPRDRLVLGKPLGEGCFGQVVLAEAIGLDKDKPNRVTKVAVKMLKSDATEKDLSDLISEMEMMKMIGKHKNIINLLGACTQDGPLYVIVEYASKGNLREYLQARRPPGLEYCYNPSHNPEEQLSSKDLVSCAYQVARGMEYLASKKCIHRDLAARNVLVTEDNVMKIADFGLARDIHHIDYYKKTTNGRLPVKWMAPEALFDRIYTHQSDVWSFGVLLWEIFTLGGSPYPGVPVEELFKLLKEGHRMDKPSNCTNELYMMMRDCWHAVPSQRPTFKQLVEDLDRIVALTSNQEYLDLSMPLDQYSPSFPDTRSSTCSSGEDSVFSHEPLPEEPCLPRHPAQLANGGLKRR
Procedure: as §4

[15] = target: mitogen activated protein kinase kinase 1 (MAP2K1) (Homo sapiens, UniProt Q02750); test: Cross kinase panel high-throughput assay; format: biochemical
Chain of mitogen activated protein kinase kinase 1 (MAP2K1) (Q02750 whole entry): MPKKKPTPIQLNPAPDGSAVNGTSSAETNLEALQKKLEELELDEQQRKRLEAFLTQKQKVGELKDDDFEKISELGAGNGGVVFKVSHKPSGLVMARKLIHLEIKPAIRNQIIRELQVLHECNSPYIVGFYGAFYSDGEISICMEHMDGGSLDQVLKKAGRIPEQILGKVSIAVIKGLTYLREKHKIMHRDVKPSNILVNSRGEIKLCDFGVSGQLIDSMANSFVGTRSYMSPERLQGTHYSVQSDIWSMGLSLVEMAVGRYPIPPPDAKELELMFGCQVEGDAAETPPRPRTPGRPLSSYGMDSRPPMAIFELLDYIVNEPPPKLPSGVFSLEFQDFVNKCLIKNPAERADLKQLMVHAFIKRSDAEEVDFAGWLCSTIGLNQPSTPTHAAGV
Procedure: as §4

[16] = target: mitogen activated protein kinase kinase kinase 8 (MAP3K8) (Homo sapiens, UniProt P41279); test: Cross kinase panel high-throughput assay; format: biochemical
Chain of mitogen activated protein kinase kinase kinase 8 (MAP3K8) (P41279 whole entry): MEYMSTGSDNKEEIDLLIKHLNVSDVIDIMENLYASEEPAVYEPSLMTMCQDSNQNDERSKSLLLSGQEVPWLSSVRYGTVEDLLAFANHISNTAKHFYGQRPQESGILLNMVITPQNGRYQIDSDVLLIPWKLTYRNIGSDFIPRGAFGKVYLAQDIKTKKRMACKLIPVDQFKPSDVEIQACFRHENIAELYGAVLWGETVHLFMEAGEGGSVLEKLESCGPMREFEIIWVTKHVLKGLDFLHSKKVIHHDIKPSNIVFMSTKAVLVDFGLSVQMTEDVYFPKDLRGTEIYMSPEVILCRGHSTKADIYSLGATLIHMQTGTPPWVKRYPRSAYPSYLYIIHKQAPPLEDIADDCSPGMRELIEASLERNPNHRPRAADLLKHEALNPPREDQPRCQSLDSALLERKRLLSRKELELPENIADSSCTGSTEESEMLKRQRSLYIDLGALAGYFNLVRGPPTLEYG
Procedure: as §4

[17] = tested on: polo-like kinase 1/3 (PLK1/3); test: Cross kinase panel high-throughput assay; format: biochemical; conditions: 10 μM
Procedure: as §4

[18] = tested on: protein kinase B 1/2 (AKT1/2); test: Cross kinase panel high-throughput assay; format: biochemical; conditions: 10 μM
Procedure: as §4

[19] = target: T3, serum/glucocorticoid regulated kinase 1 (SGK1) (Homo sapiens, UniProt O00141); test: Cross kinase panel high-throughput assay; format: biochemical
T3 sequence (O00141 1-431): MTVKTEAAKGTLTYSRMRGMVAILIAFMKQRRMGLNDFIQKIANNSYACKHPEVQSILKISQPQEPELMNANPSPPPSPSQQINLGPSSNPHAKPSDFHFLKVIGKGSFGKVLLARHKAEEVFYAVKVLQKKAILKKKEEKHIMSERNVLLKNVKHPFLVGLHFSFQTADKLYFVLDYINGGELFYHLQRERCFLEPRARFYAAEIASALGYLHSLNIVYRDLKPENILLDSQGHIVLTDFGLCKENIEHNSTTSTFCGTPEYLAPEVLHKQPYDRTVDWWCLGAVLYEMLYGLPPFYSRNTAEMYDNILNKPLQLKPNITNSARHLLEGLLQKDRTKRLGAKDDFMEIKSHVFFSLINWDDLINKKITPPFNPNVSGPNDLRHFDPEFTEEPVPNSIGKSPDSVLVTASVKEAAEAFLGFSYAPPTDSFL
Procedure: as §4

[20] = tested on: MCF7 breast cancer cell lines expressing HER2, HER2Δ16 and empty vector; test: High-throughput cell viability screen at 10 μM (CellTiter-Glo); format: cell-based; conditions: for suppression of cell viability / inhibition in the high-throughput assay: 48 h
Procedure: The antagonistic activities of the compounds were tested in an estrogen receptor positive (ER+) breast cancer cell line, MCF7 breast cancer cell lines expressing HER2, HER2Δ16 and empty vector. Lapatinib was used as the positive control. The cells were treated with the compounds at 10 μM concentration for 48 h. After treatment, cell viability was tested using the CellTiter-Glo Assay (Promega).

Row | SMILES | inhibition of autophosphorylation at HER2-Y1248 (western blot) [1] | inhibition of phosphorylation at EGFR-Y1068 (western blot) [2] | IC50 [3] [µM] | IC50 [4] [µM] | IC50 [5] [µM] | suppression of cell viability / inhibition in the high-throughput assay [20] | other results
1 | CC1=CC(=O)c2c(O)ccc(O)c2C1=O [Compound 6, 5,8-dihydroxy-2-methylnaphthalene-1,4-dione] | significantly decreased HER2 activating phosphorylation to the same extent as lapatinib; also recorded: inhibit the phosphorylation | decreased; also recorded: inhibit the phosphorylation |  |  |  |  | 
2 | Cc1cc(O)c2c(c1O)C(=O)C=CC2=O [Compound 7, 5,8-dihydroxy-6-methylnaphthalene-1,4-dione] | significantly decreased HER2 activating phosphorylation to the same extent as lapatinib; also recorded: inhibit the phosphorylation | decreased; also recorded: inhibit the phosphorylation | 0.29 | 0.51 | 0.32 |  | IC50 [6]: 0.123 to 2.92 µM; fold decrease in potency versus the other cell lines [7]: 3-4 fold; kinase inhibition AurK A/B [8]: ≥ 80%; kinase inhibition IKK B/E [9]: ≥ 80%; inhibition at 10 µM [10]: ≥ 80%; inhibition at 10 µM [11]: ≥ 80%; inhibition at 10 µM [12]: ≥ 80%; inhibition at 10 µM [13]: ≥ 80%; inhibition at 10 µM [14]: ≥ 80%; inhibition at 10 µM [15]: ≥ 80%; inhibition at 10 µM [16]: ≥ 80%; kinase inhibition PLK1/3 [17]: ≥ 80%; kinase inhibition AKT1/2 [18]: ≥ 80%; inhibition at 10 µM [19]: ≥ 80%
3 | O=C1C=C(CBr)C(=O)c2c(O)ccc(O)c21 [Compound 9, 2-(bromomethyl)-5,8-dihydroxynaphthalene-1,4-dione] | significantly decreased HER2 activating phosphorylation to the same extent as lapatinib; also recorded: inhibit the phosphorylation | decreased; also recorded: inhibit the phosphorylation | 1.78 | 3.61 | 1.66 |  | 
4 | Cc1ccc(O)c2c1C(=O)C=CC2=O [Compound 22, 5-hydroxy-8-methylnaphthalene-1,4-dione] |  |  | 4.61 | 9.39 | 2.93 |  | 
5 | Cc1cc(O)c2c(c1)C(=O)C=CC2=O [Compound 25, 5-hydroxy-7-methylnaphthalene-1,4-dione] | did not show such an effect on auto-phosphorylation; also recorded: did not show notable inhibition of phosphorylation |  |  |  | 30.9 | showed notable inhibition | 
6 | O=C1C=CC(=O)c2c(O)cc(CBr)cc21 [Compound 26, 5-hydroxy-7-bromomethylnaphthalene-1,4-dione] | did not show such an effect on auto-phosphorylation; also recorded: did not show notable inhibition of phosphorylation |  |  |  |  | showed notable inhibition | 
7 | COc1cc(C)cc2c1C(=O)C=CC2=O [Compound 27, 5-methoxy-7-methylnaphthalene-1,4-dione] | did not show such an effect on auto-phosphorylation; also recorded: did not show notable inhibition of phosphorylation |  | 3.18 | 7.3 | 4.94 | showed notable inhibition | 
8 | CC1C(=O)c2cc([N+](=O)[O-])cc([N+](=O)[O-])c2C1=O (stereo not shown) [Compound 28, 2-methyl-4,6-dinitro-1H-indene-1,3(2H)-dione] | shows significant phosphorylation | shows significant phosphorylation |  |  |  | did not show notable growth inhibition | 
9 | CS(=O)(=O)CCNCc1ccc(-c2ccc3ncnc(Nc4ccc(OCc5cccc(F)c5)c(Cl)c4)c3c2)o1 [Lapatinib, reference compound] |  |  | 15.8 | 19.2 | 15.7 |  | viability at 10 µM ([20]; Homo sapiens, MCF7, 48 h): < 70%
